Holding throughout (type): cell-based
One assay has as its system KM20L2. As to the kind of experiment: NCI human tumor cell line screen, colon KM20L2. The following applies: for GI-50 / TGI: Human cancer cell; for LC-50: Human cancer cells. An excerpt:
(§1) Current research in the control of cancer in the United States is coordinated by the National Cancer Institute (NCI). To determine whether a substance has anti-cancer properties, the NCI has established a systematic protocol. […] The protocol, and the established statistical means for analyzing the results obtained by the standardized testing are fully described in the literature. See: Body, Dr. Michael R., Principles & Practice of Oncology, PPO Updates, Volume 3, Number 10, October 1989, for an in depth description of the testing protocol; and Paull, K. D., "Display and Analysis of Patterns of Differential Activity of Drugs Against Human Tumor Cell Lines; Development of Mean Graph and COMPARE Algorithm", Journal of the National Cancer Institute Reports, Vol. 81, No. 14, Page 1088, Jul. 14, 1989 for a description of the methods of statistical analysis. Both of these references are incorporated herein by this reference thereto.

Another assay concerns SF-295. As to the kind of experiment: NCI human tumor cell line screen, CNS SF-295. The following applies: for GI-50 / TGI: Human cancer cell; for LC-50: Human cancer cells. An excerpt: (§2) Current research in the control of cancer in the United States is coordinated by the National Cancer Institute (NCI). To determine whether a substance has anti-cancer properties, the NCI has established a systematic protocol. This protocol, which involves the testing of a substance against a standard cell line panel containing 60 human tumor cell lines, has been verified and has been accepted in scientific circles. The protocol, and the established statistical means for analyzing the results obtained by the standardized testing are fully described in the literature. See: Body, Dr. Michael R., Principles & Practice of Oncology, PPO Updates, Volume 3, Number 10, October 1989, for an in depth description of the testing protocol; and Paull, K. D., "Display and Analysis of Patterns of Differential Activity of Drugs Against Human Tumor Cell Lines; Development of Mean Graph and COMPARE Algorithm", Journal of the National Cancer Institute Reports, Vol. 81, No. 14, Page 1088, Jul. 14, 1989 for a description of the methods of statistical analysis. Both of these references are incorporated herein by this reference thereto.
(§3) The extraordinary inhibition of cell growth shown by the tetrapeptide 6a-k against six major types of human cancer and against the murine P388 lymphocytic leukemia cell line has been presented in Table 1-2, below.

The subject of another assay is SK-MEL-3. As to the kind of experiment: NCI human tumor cell line screen, melanoma SK-MEL-3. The following applies: for GI-50 / TGI: Human cancer cell; for LC-50: Human cancer cells.
From the text: as §2, §3

The test system of another assay is NCI-460. Description: NCI human tumor cell line screen, Lung-NSC NCI-460. The following applies: for GI-50 / TGI: Human cancer cell; for LC-50: Human cancer cells.
From the text: as §1

Another assay relates to P-388. As to the kind of experiment: Murine P388 lymphocytic leukemia cell growth inhibition. The conditions noted are these: Mouse leukemia cell P-388.
From the text: as §3

The next assay relates to A498. As to the kind of experiment: NCI human tumor cell line screen, renal A498. The conditions noted are these: for GI-50 / TGI: Human cancer cell; for LC-50: Human cancer cells.
From the text: as §1

A further assay concerns OVCAR-3. As to the kind of experiment: NCI human tumor cell line screen, ovarian OVCAR-3. The following applies: for GI-50 / TGI: Human cancer cell; for LC-50: Human cancer cells.
From the text: as §1

Several values for one entry are separate records, joined by “and”; a condition that tells them apart may be missing. Identical values can stand only once. Some results are limits rather than exact numbers.

Turning to “[2S-[1 [1R*(R*),2S*],2R*[1S*,2S*]]]-N,N-dimethyl-L-valyl-N-[2-methoxy-4-[2-[1-methoxy-2-methyl-3-oxo-3-[[2-(4-bromo-phenyl)-ethyl]amino]propyl]-1-pyrrolidinyl-l-(methylpropyl)-4-oxo butyl]-N-methyl-L-valineamide [Peptide 6e]”, the GI-50 in the assay on KM20L2 was 0.00032 µg/mL; in the assay with SF-295, 0.00043 µg/mL; in the assay with SK-MEL-3, 0.00038 µg/mL; in the assay on NCI-460, 0.00027 µg/mL; with A498, 0.00046 µg/mL; in the assay on OVCAR-3, 0.00015 µg/mL. The TGI in the assay with KM20L2 was 4.1 ng/mL; in the assay with SF-295, more than 10 ng/mL; with SK-MEL-3 it was more than 10 ng/mL; in the assay with NCI-460, 1.2 ng/mL; in the assay on A498 it was more than 10 ng/mL; in the assay with OVCAR-3, 0.5 ng/mL. In addition, the LC-50 in the assay with KM20L2 is more than 0.01 µg/mL; with SF-295, more than 0.01 µg/mL; in the assay on SK-MEL-3 it was more than 0.01 µg/mL; with NCI-460, more than 0.01 µg/mL; with A498, more than 0.01 µg/mL; with OVCAR-3 it was 0.0094 µg/mL. The substance also came in with an ED-50 with P-388 of 0.00515 µg/mL.
“[2S-[1 [1R*(R*),2S*],2R*[1S*, 2S*]]]-N,N-dimethyl-L-valyl-N-[2-methoxy-4-[2-[1-methoxy-2-methyl-3-oxo-3- [[2-(4-chlor-phenyl)-etthyl]amino]propyl]-1-pyrrolidinyl-1-(methylpropyl)-4-oxo butyl]-N-methyl-L-valineamide [Peptide 6d]”: the GI-50 in the assay with KM20L2 was 0.00033 µg/mL; in the assay with SF-295, 0.000046 µg/mL; in the assay with SK-MEL-3, 0.000044 µg/mL; with NCI-460, 0.000025 µg/mL; in the assay with A498, 0.000059 µg/mL; in the assay on OVCAR-3, 0.000016 µg/mL. For the same substance, the concentration for total growth inhibition (TGI) in the assay on KM20L2 is 2.9 ng/mL; with SF-295, more than 10 ng/mL; with SK-MEL-3 it was more than 10 ng/mL; in the assay on NCI-460, 0.14 ng/mL; in the assay with A498, 2.8 ng/mL; with OVCAR-3, 0.05 ng/mL. The LC-50 was more than 0.0001 µg/mL in the assay on KM20L2; more than 0.0001 µg/mL in the assay with SF-295; more than 0.0001 µg/mL with SK-MEL-3; more than 0.0001 µg/mL with NCI-460; more than 0.0001 µg/mL with A498; 0.00096 µg/mL with OVCAR-3. The substance further came in with an ED-50 with P-388 of 0.00372 µg/mL.
For “[2S-[1[1R*(R*),2S*],2R*[1S*,2S*,3(1S*, 2S*)]]]-N,N-dimethyl-L-valyl-N-[2-methoxy-4-[2-[1-methoxy-2- methyl-3-oxo-3-[[1-phenyl-1-hydroxy-2-propyl]methylamino]propyl]- 1-pyrrolidinyl-1-(methylpropyl)-4-oxobutyl]-N-methyl-L-valineamide valineamide [Peptide 6h]”, the TGI in the assay on KM20L2 was 0.52 ng/mL; in the assay with SF-295 it was more than 10 ng/mL; in the assay on SK-MEL-3, more than 10 ng/mL; in the assay with NCI-460, 0.11 ng/mL; with A498, > 10 ng/mL and 9.7 ng/mL. Besides, the LC-50 in the assay on KM20L2, in the assay on SF-295, with SK-MEL-3, with NCI-460, in the assay on A498 and with OVCAR-3 was more than 0.01 µg/mL throughout. Moreover, the GI-50 with SF-295 is 0.00031 µg/mL and 0.00034 µg/mL; in the assay with NCI-460, 0.00006 µg/mL.
On to “[2S-[1[1R*(R*),2S*],2R*[1S*,2S*, 3(1R*, 2S*)]]]-N,N-dimethyl-L-valyl-N-[2-methoxy-4-[2-[1-methoxy-2- methyl-3-oxo-3-[[1-phenyl-1-hydroxy-2-propyl]amino]propyl]-1-pyrrolidinyl- 1-(methylpropyl)-4-oxobutyl]-N-methyl-L-valine amide [Peptide 6i]”, for which the GI-50 with KM20L2 stood at 0.00011 µg/mL; in the assay on SF-295 it was 0.000016 µg/mL; in the assay on SK-MEL-3 it was 0.00058 µg/mL; in the assay on NCI-460, 0.000025 µg/mL; with A498, 0.0000027 µg/mL; in the assay on OVCAR-3, 0.000021 µg/mL. The TGI in the assay with KM20L2 was 7 ng/mL; in the assay with SF-295 it was 0.24 ng/mL; in the assay with SK-MEL-3, more than 10 ng/mL; in the assay on NCI-460 it was more than 10 ng/mL; with A498, 0.0086 ng/mL; with OVCAR-3 it was 0.042 ng/mL. For the same substance, the LC-50 in the assay with KM20L2 was more than 0.01 µg/mL; in the assay with SF-295, more than 0.01 µg/mL; in the assay on SK-MEL-3 it was more than 0.01 µg/mL; with NCI-460 it was more than 0.01 µg/mL; in the assay with A498, 0.00029 µg/mL; in the assay on OVCAR-3 it was 0.000088 µg/mL. The same substance displayed an ED-50 in the assay with P-388 of 0.000503 µg/mL.
For the substance “[2S-[1[1R*(R*),2S*],2R*[1S*,2S*, 3(1S*, 2R*)]]]-N,N-dimethyl-L-valyl-N-[2-methoxy-4-[2-[1-methoxy-2-methyl-3-oxo-3-[[1-phenyl-1-hydroxy-2-propyl]amino]propyl]-1-pyrrolidinyl-1-(methylpropyl)-4-oxobutyl]-N-methyl-L-valine amide [Peptide 6k]”, the GI-50 was 0.00029 µg/mL in the assay with KM20L2; 0.0006 µg/mL in the assay on SF-295; 0.00058 µg/mL in the assay on SK-MEL-3; 0.0003 µg/mL in the assay on NCI-460; 0.00075 µg/mL in the assay with A498; 0.00017 µg/mL with OVCAR-3. The concentration for total growth inhibition (TGI) in the assay on KM20L2 was 1.3 ng/mL; in the assay with SF-295 it was more than 10 ng/mL; with SK-MEL-3 it was more than 10 ng/mL; with NCI-460, 1 ng/mL; in the assay with A498 it was more than 10 ng/mL; with OVCAR-3, 0.53 ng/mL. Besides, the LC-50 with KM20L2, in the assay with SF-295, with SK-MEL-3, with NCI-460, with A498 and with OVCAR-3 was more than 0.01 µg/mL in each case. Besides, the ED-50 with P-388 amounted to 0.000434 µg/mL.
For the substance “[2S-[1[1R*(R*),2S*],2R*[1S*,2S*]]]-N,N-dimethyl-L-valyl-N-[2-methoxy-4-[2- [1-methoxy-2-methyl-3-oxo-3-[[2-(3-chlor-phenyl)-ethyl]amino]propyl]-1-pyrrolidinyl-1-(methylpropyl)-4-oxo butyl]-N-methyl-L-valineamide [Peptide 6f]”, the GI-50 with KM20L2 was 0.0000007 µg/mL; in the assay with SF-295 it was 0.000028 µg/mL; with SK-MEL-3, less than 0.000001 µg/mL; in the assay with NCI-460, less than 0.000001 µg/mL; in the assay on A498, less than 0.000001 µg/mL; in the assay with OVCAR-3 it was less than 0.000001 µg/mL. Besides, the TGI with KM20L2 was 1.7 ng/mL; with SF-295, more than 10 ng/mL; with SK-MEL-3, more than 10 ng/mL; in the assay on NCI-460, 0.1 ng/mL; in the assay with A498, 1.7 ng/mL; with OVCAR-3, less than 0.001 ng/mL. The LC-50 in the assay on KM20L2 is more than 0.01 µg/mL; in the assay on SF-295 it was more than 0.01 µg/mL; with SK-MEL-3 it was more than 0.01 µg/mL; with NCI-460 it was more than 0.01 µg/mL; with A498 it was more than 0.01 µg/mL; with OVCAR-3, 0.00076 µg/mL. The same substance showed an ED-50 in the assay on P-388 of 0.00225 µg/mL.

A word on the TGI: it is the concentration giving total growth inhibition. A lower TGI goes with more potent growth arrest.

The record behind these values is patent publication US5635483A, “Tumor inhibiting tetrapeptide bearing modified phenethyl amides” (priority 1992, dated 1997).
